Results taken from patent publication US20260174860A1, “HYBRID COMPOUNDS OF SCLAREOL AND DOXORUBICIN, THEIR SYNTHESIS AND APPLICATION” (INSTITUTE FOR BIOLOGICAL RESEARCH "SINISA STANKOVIC" - …, priority 2023, published 2026).

Tests used:
[1] = system: MRC-5 human lung fibroblast cell line; assay: MTT test of cell viability, 72 h treatment; format: cell-based
Procedure: (§1) The MTT test was used to evaluate the effect of the compounds on cell viability. The test relies on the reduction of tetrazolium salt (MTT) to formazan, which is catalyzed by the mitochondrial enzyme succinate dehydrogenase. The activity of succinate dehydrogenase, which is indicative of mitochondrial respiration, is taken as an indirect measure of the metabolic activity of the cell, and thus its viability. The MTT-formazan produced is a purple-colored product, whose absorbance is measured at a wavelength of 570 nm. • a) To determine the inhibition of cell growth by SC, different cell lines were exposed to increasing concentrations of SC (5, 10, 25, 50, and 100 μM). The cells were seeded in 96-well microtiter plates at a density of 2,000 cells per well for NCI-H460, NCI-H460/R, DLD1 and DLD1-TxR, and 4,000 cells per well for MRC-5, U87, U87-TxR, and U251 in 100 μL of the appropriate medium. Control cells that received no treatment were also seeded at the same time. After 24 h for adaptation, the cells were treated with various concentrations of SC. After 72 h of treatment, 0.2 mg/ml MTT was added to each well in the appropriate cell culture medium. After 4 h of incubation at 37° C. with 5% CO2, the medium was removed, and 100 μL of DMSO were added to each well, to dissolve the formazan. The absorbance of the samples was measured at 570 nm using a Multiskan Sky Microplate spectrophotometer (ThermoFisher Scientific, USA). The results were analyzed using GraphPad Prism 8.0.2. software, and the IC50 values were determined by non-linear regression. • b) To test the interaction between SC and DOX in terms of cytotoxicity in different cell lines, cells were seeded in 96-well microtiter plates at a density of 2,000 cells per well for NCI-H460, NCI-H460/R, DLD1 and DLD1-TxR, and 4,000 cells per well for MRC-5, U87, U87-TxR, and U251 in 100 μl of the appropriate medium. SC (10 and 20 μM) was combined with increasing concentrations of DOX (20, 50, 100, 200, and 500 nM). The cells were treated with the simultaneous combinations for 72 h. After this period, 0.2 mg/ml MTT was added to each well, followed by 4 hours of incubation at 37° C. with 5% CO2. The medium was then removed, and DMSO was added to each well to dissolve the formazan.
(§2) The absorbance of the samples was measured at 570 nm using a Multiskan Sky Microplate spectrophotometer.
(§3) The analysis was carried out using GraphPad Prism software version 8.0.2 to determine the nature of the interaction, namely synergistic, antagonistic, or additive, between compounds. This was done using the computer software CalcuSyn, which is based on the combination index method. The method takes into account the concentration of compounds, the individual effect of each compound, as well as the effect of two compounds in combination. The values of the combination indices (CI) describe the nature of the interaction: Cl<0.9 indicates synergism, Cl>1.1 indicates antagonism, and Cl=0.9-1.1 indicates an additive effect. • c) To compare the resistance and selectivity profiles among SC, DOX, CON1, and CON2, human glioblastoma cell lines U87, U87-TxR, and MRC-5 were seeded at a density of 4,000 cells per well in 100 μL of the appropriate medium. In contrast, NCI-H460, NCI-H460/R, and MRC-5 were seeded at a density of 2,000 cells per well in 100 μL of the proper medium. The effect of SC derivatives LIG1 and LIG2 was also examined. The range of concentrations differed among the cell lines and the compounds. For LIG1 and LIG2, the range of concentrations for all cell lines was 50, 100, 200, 300, and 400 μM, while the same range was used for the MRC-5 in the case of SC, CON1, and CON2. DOX concentrations ranged 0.1, 0.25, 0.5, 1, and 2.5 μM for U87 and NCI-H460, and 0.25, 0.5, 1, 2.5, and 5 μM for U87-TxR, NCI-H460/R, and MRC-5. Five concentrations used for SC, CON1, and CON2 treatments varied in the range 1, 2.5, 5, 10, 25, 50, and 100 μM. The treatment lasted 72 h. […]

[2] = system: NCI-H460/R resistant human non-small cell lung carcinoma cell line; assay: MTT test of cell viability, 72 h treatment; format: cell-based; settings: for IC50: MTT, 72 h, MDR line; for Relative Resistance: ratio IC50 NCI-H460/R / IC50 NCI-H460
Procedure: as §1, §2, §3

[3] = system: U87-TxR resistant human glioblastoma cell line; assay: MTT test of cell viability, 72 h treatment; format: cell-based; settings: for IC50: MTT, 72 h, MDR line; for Relative Resistance: ratio IC50 U87-TxR / IC50 U87
Procedure: as §1, §2, §3

[4] = system: U87 human glioblastoma cell line; assay: MTT test of cell viability, 72 h treatment; format: cell-based; settings: for IC50: MTT, 72 h; for Selectivity Index: ratio IC50 MRC-5 (4,000 cells per well) / IC50 U87
Procedure: as §1
as §3, with “h. After the treatment period, 0.2 mg/ml MTT in the appropriate cell culture medium was added to each well.” for “h.”

[5] = system: NCI-H460 human non-small cell lung carcinoma cell line; assay: MTT test of cell viability, 72 h treatment; format: cell-based; settings: for IC50: MTT, 72 h; for Selectivity Index: ratio IC50 MRC-5 (2,000 cells per well) / IC50 NCI-H460
Procedure: as §1
as §3, with “h. After the treatment period, 0.2 mg/ml MTT in the appropriate cell culture medium was added to each well.” for “h.”

[6] = Zetasizer measurement of size, polydispersity and zeta potential; format: physicochemical; settings: 25° C., diluted 100 times with ultrapure water, mean of three
Procedure: The Malvern Zetasizer Nano ZS (Malvern Instruments, United Kingdom) was used to analyze the physico-chemical stability characteristics of conjugates. The measurement range was from 0.6 nm up to […]. The mean size of conjugates, the polydispersity index (PDI) and zeta potential were measured. All measurements were taken at a temperature of 25° C. and each sample was diluted 100 times with ultrapure water. The measurements were repeated three times, and the results were presented as the mean value. PDI is a parameter used to define the size range of particles. The term “polydispersity” (or “dispersity” as recommended by IUPAC) describes the degree of non-uniformity of a size distribution of particles. Zeta potential represents the surface charge of nanoparticles and indicates their long-term stability.

[7] = Homo sapiens, MRC5, 72 h, 2,000 cells per well (non-small cell carcinoma experiments)
[8] = Homo sapiens, MRC5, 72 h, 4,000 cells per well (glioblastoma experiments)

Molecule | IC50 [1, 7] | IC50 [1, 8] | IC50 ([2]; Homo sapiens, NCI-H460) | Relative Resistance [2] | IC50 ([3]; Homo sapiens, U87-TxR) | Relative Resistance [3] | IC50 ([4]; Homo sapiens) | Selectivity Index [4] | IC50 ([5]; Homo sapiens, NCI-H460) | Selectivity Index [5] | IC50 ([1]; 2,000 cells per well (non-small cell carcinoma experiments)) | IC50 ([1]; 4,000 cells per well (glioblastoma experiments)) | IC50 [2] | IC50 [3] | Z-Average [6] | IC50 [4] | IC50 [5]
CC1(C)CCC[C@]2(C)[C@@H](CC[C@@](C)(O)/C=C/c3ccc(CNCCCNC(=O)CCC(=O)O)cc3)[C@](C)(O)CC[C@@H]12 [LIG1, 4-((3-((4-((R,E)-3-hydroxy-5-((1R,2R,4aS,8aS)-2-hydroxy-2,5,5,8a-tetramethyldecahydronaphthalen-1-yl)-3-methylpent-1-en-1-yl)benzyl)amino)propyl)amino)-4-oxobutanoic acid] | 393 µM | 236 µM | 55.2 µM | 1.3 | 61.7 µM | 0.8 | 74.4 µM | 3.2 | 41.7 µM | 9.4 | – | – | – | – | – | – | –
CC1(C)CCC[C@]2(C)[C@@H](CC[C@@](C)(O)/C=C/c3ccc(CNCCCCCCNC(=O)CCC(=O)O)cc3)[C@](C)(O)CC[C@@H]12 [LIG2, 4-((6-((4-((R,E)-3-hydroxy-5-((1R,2R,4aS,8aS)-2-hydroxy-2,5,5,8a-tetramethyldecahydronaphthalen-1-yl)-3-methylpent-1-en-1-yl)benzyl)amino)hexyl)amino)-4-oxobutanoic acid] | 610 µM | > 400 µM | 110 µM | 1.1 | 273 µM | 0.8 | 345 µM | >1.2 | 99.6 µM | 6.1 | – | – | – | – | – | – | –
N1-((2S,3S,4S,6R)-3-hydroxy-2-methyl-6-(((1S,3S)-3,5,12-trihydroxy-3-(2-hydroxyacetyl)-10-methoxy-6,11-dioxo-1,2,3,4,6,11-hexahydrotetracen-1-yl)oxy)tetrahydro-2H-pyran-4-yl)-N4-(6-((4-((R,E)-3-hydroxy-5-((1R,2R,4aS,8aS)-2-hydroxy-2,5,5,8a-tetramethyldecahydronaphthalen-1-yl)-3-methylpent-1-en-1-yl)benzyl)amino)hexyl) succinamide [CON2] | – | – | – | 3.3 | – | 4.2 | – | >64.5 | – | 5.2 | 131 µM | > 400 µM | 83.3 µM | 26.2 µM | 180 ± 14.7 nm·days | 6.2 µM | 25.1 µM
